Patent publication US20080299130A1, “Methods And Compositions For The Treatment Of Ocular Neovascularization” (UNIVERSITY OF KENTUCKY RESEARCH FOUNDATION, priority 2004, published 2008)

Tested on: laser-induced CNV
Assay: Laser-induced choroidal neovascularization (CNV) volume after intravitreous injection
Assay type: in vivo, mouse
Experimental: Laser photocoagulation (532 nm, 200 mW, 100 ms, 75 μm; OcuLight GL, Iridex, Mountain View, Calif.) was performed on both eyes of each animal by a single individual masked to genetic identity. Laser spots (volume studies: 3/eye; angiography: 4/eye; protein analyses/flow cytometry: 12/eye) were applied in a standardized fashion around the optic nerve, using a slit lamp delivery system and a cover slip as a contact lens. The morphological endpoint of the laser injury was the appearance of a cavitation bubble, a sign thought to correlate with the disruption of Bruch's membrane.
Two weeks after laser injury, eyes were enucleated and fixed with 4% paraformaldehyde (PFA) for 30 minutes at 4° C. […]
Flat mounts were examined with a scanning laser confocal microscope (TCS SP, Leica, Heidelberg, Germany). […] The area of CNV-related fluorescence was measured by computerized image analysis with the microscope software (TCS SP; Leica). […]
Because the probability of each laser lesion developing CNV is influenced by the group to which it belongs, the mouse, the eye, and the laser spot, the mean lesion volumes were compared using a linear mixed model with a split plot repeated measures design, as previously described (Sakurai, et al., (2003), Invest Opthalmol Vis Sci 44, 2743-2749; Sakurai et al., (2003), Invest Opthalmol Vis Sci 44, 3578.3585). […] Statistical significance was determined at the 0.05 level. […]

“Recombinant MCP-1: recombinant mouse MCP-1 protein (Ccl-2)” was tested, and the “Effect on CNV” value (MCP-1 knock out mice (FIG. 5, FIG. 6)) was “restores CNV” and the “CNV restored, % of control” value (recombinant MCP-1 0.55 ng given with anti-VEGF-A antibody, n=6, P=0.82) was 95.7±13.0 % of control.
